According to US9243025B2, “Compounds and pharmaceutical compositions for the treatment of viral infections” (Idenix Pharmaceuticals, LLC, priority 2011, dated 2016):
Read-outs that look alike come from different tables or passages of the source.

Columns and labels:
Type in all cases: cell-based
[1] = system: Huh-7 cells containing HCV Coni subgenomic replicon (GS4.1 cells); assay: HCV replicon assay; settings: GS4.1 cells, 72 hours incubation, NS4A expression by ELISA, read-out: HCV Replicon EC50
Procedure: (§1) Huh-7 cells containing HCV Coni subgenomic replicon (GS4.1 cells), (C. Seeger; Fox Chase University, Philadelphia, Pa., USA), are grown in Dulbecco's Modified Eagle Medium (DMEM) supplemented with 10% fetal bovine serum (FBS), 2 mM L-glutamine, 110 mg/L sodium pyruvate, 1× non-essential amino acids, 100 U/mL penicillin-streptomycin and 0.5 mg/mL G418 (Invitrogen). For dose-response testing, the cells are seeded in 96-well plates at 7.5×10^3 cells/well in a volume of 50 μL and incubated at 37° C./5% CO2. Three hours after plating, 50 μL of ten 2-fold serial dilutions of compounds (highest concentration, 75 μM) are added and cell cultures were incubated at 37° C./5% CO2 in the presence of 0.5% DMSO. Alternatively, compounds are tested at a single concentration of 15 μM. In all cases, Huh-7 cells lacking the HCV replicon served as negative control. The cells are incubated in the presence of compounds for 72 hours after which they were monitored for expression of the NS4A protein by enzyme-linked immunosorbent assay (ELISA). For this, the plates were then fixed for 1 min with 1:1 acetone:methanol, washed twice with phosphate-buffered saline (PBS), 0.1% Tween 20, blocked for 1 hour at room temperature with TNE buffer containing 10% FBS and then incubated for 2 h at 37° C. with the anti-NS4A mouse monoclonal antibody A-236 (ViroGen) diluted in the same buffer. After washing three times with PBS, 0.1% Tween 20, the cells are incubated 1 hour at 37° C. with anti-mouse immunoglobulin G-peroxidase conjugate in TNE, 10% FBS. After washing as described above, the reaction is developed with O-phenylenediamine (Zymed). The reaction is stopped after 30 minutes with […] and the absorbance is read at 492 nm using a Sunrise Tecan spectrophotometer. EC50 values are determined from the % inhibition versus concentration data using a sigmoidal non-linear regression analysis based on four parameters with Tecan Magellan software. When screening at a single concentration, the results are expressed as % inhibition at 15 μM. For cytotoxicity evaluation, GS4.1 cells are treated with compounds as described above and cellular viability was monitored using a Cell Titer 96 AQueous One Solution Cell Proliferation Assay (Promega). CC50 values are determined from the % cytotoxicity versus concentration data with Tecan Magellan software as described above.
Compounds presented in the table below were assayed according to the replicon assay described above.

[2] = system: GS4.1 cells; assay: Cytotoxicity evaluation in GS4.1 cells (Cell Titer 96 AQueous One Solution Cell Proliferation Assay); settings: cellular viability, treated as in replicon assay, read-out: HCV Replicon CC50
Procedure: as §1

[3] = as above; settings: human, cellular viability, treated as in replicon assay, read-out: HCV Replicon CC50
Procedure: as §1

## CCOC(=O)[C@@H](CC(C)C)NP(=O)(N[C@H](CC(C)C)C(=O)OCC)OC[C@H]1O[C@@H](n2cnc3c(OC)nc(N)nc32)C(C)(O)C1O (stereo partly drawn) [Compound 66]
[1]
  EC50: 100 to 1000 nM
[2]
  CC50: ≤ 75000 nM

## CCOC(=O)[C@H](Cc1ccccc1)NP(=O)(N[C@@H](Cc1ccccc1)C(=O)OCC)OC[C@H]1O[C@@H](n2cnc3c(N4CCOCC4)nc(N)nc32)C(C)(O)C1O (stereo partly drawn) [Compound 71]
[1]; Hepatitis C virus, Huh-7, 72 h
  EC50: < 100 nM
[3]
  CC50 at 72 h: > 75000 nM

## CCOC(=O)[C@@H](NP(=O)(N[C@H](C(=O)OCC)C(C)C)OC[C@H]1O[C@@H](n2cnc3c(N4CCOCC4)nc(N)nc32)C(C)(O)C1O)C(C)C (stereo partly drawn) [Compound 72]
[1]; Hepatitis C virus, Huh-7, 72 h
  EC50: 100 to 1000 nM
[3]
  CC50 at 72 h: > 75000 nM

## COc1nc(N)nc2c1ncn2[C@@H]1O[C@H](COP(N)(=O)OCCSC(=O)C(C)(C)CO)C(O)C1(C)O (stereo partly drawn) [Compound 73]
[1]; Hepatitis C virus, Huh-7, 72 h
  EC50: 100 to 1000 nM
[3]
  CC50 at 72 h: > 75000 nM

## CCOC(=O)CCNP(=O)(OCCSC(=O)C(C)(C)CO)OC[C@H]1O[C@@H](n2cnc3c(OC)nc(N)nc32)C(C)(O)C1O (stereo partly drawn) [Compound 74]
[1]; Hepatitis C virus, Huh-7, 72 h
  EC50: 100 to 1000 nM
[3]
  CC50 at 72 h: > 75000 nM

## CC(C)NP(=O)(OCCSC(=O)C(C)(C)CO)OC[C@H]1O[C@@H](n2cnc3c(NC4CC4)nc(N)nc32)C(C)(O)C1O (stereo partly drawn) [Compound 75]
[1]; Hepatitis C virus, Huh-7, 72 h
  EC50: 100 to 1000 nM
[3]
  CC50 at 72 h: > 75000 nM

## CCOC(=O)CCNP(=O)(OCCSC(=O)C(C)(C)CO)OC[C@H]1O[C@@H](n2cnc3c(NC4CC4)nc(N)nc32)C(C)(O)C1O (stereo partly drawn) [Compound 76]
[1]; Hepatitis C virus, Huh-7, 72 h
  EC50: 100 to 1000 nM
[3]
  CC50 at 72 h: > 75000 nM

## CCOC(=O)[C@@H](NP(=O)(N[C@H](C(=O)OCC)C(C)C)OC[C@H]1O[C@@H](n2cnc3c(SC)nc(N)nc32)C(C)(O)C1O)C(C)C (stereo partly drawn) [Compound 77]
[1]; Hepatitis C virus, Huh-7, 72 h
  EC50: 100 to 1000 nM
[3]
  CC50 at 72 h: > 75000 nM

## CN(N)c1nc(N)nc2c1ncn2[C@@H]1O[C@H](COP(=O)(NCc2ccccc2)OCCSC(=O)C(C)(C)CO)C(O)C1(C)O (stereo partly drawn) [Compound 78]
[1]; Hepatitis C virus, Huh-7, 72 h
  EC50: 100 to 1000 nM
[3]
  CC50 at 72 h: > 75000 nM

## CC(C)NP(=O)(OCCSC(=O)C(C)(C)CO)OC[C@H]1O[C@@H](n2cnc3c(Cl)nc(N)nc32)C(C)(O)C1O (stereo partly drawn) [Compound 79]
[1]; Hepatitis C virus, Huh-7, 72 h
  EC50: < 100 nM
[3]
  CC50 at 72 h: ≤ 75000 nM

## CCOC(=O)[C@H](CC(C)C)NP(=O)(N[C@@H](CC(C)C)C(=O)OCC)OC[C@H]1O[C@@H](n2ccc(=O)[nH]c2=O)C(C)(O)C1O (stereo partly drawn) [Compound 80]
[1]; Hepatitis C virus, Huh-7, 72 h
  EC50: 1000 to 10000 nM
[3]
  CC50 at 72 h: > 75000 nM

## C#CC1(F)C(O)[C@@H](COP(=O)(N[C@@H](CC(C)C)C(=O)OCC)N[C@H](CC(C)C)C(=O)OCC)O[C@H]1n1cnc2c(NC3CC3)nc(N)nc21 (stereo partly drawn) [Compound 81]
[1]; Hepatitis C virus, Huh-7, 72 h
  EC50: 1000 to 10000 nM
[3]
  CC50 at 72 h: ≤ 75000 nM
